Values joined by “and” are separate entries in the source; they are usually repeats but may differ in a detail not shown here. Identical values can stand only once.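 Assay format: 96-well plates, 48-hour exposure. Abbreviation: GI50, concentration required for 50% inhibition of growth. TGI: total growth inhibition.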
Experiments:
Experiment in all cases: inhibition of tumour cell growth, NCI panel, 48 h
MDA-N = test system: MDA-N
SW-620 colon = test system: SW-620 colon
OVCAR-3 ovarian = test system: OVCAR-3 ovarian
SNB-75 CNS = test system: SNB-75 CNS
SK-MEL-28 melanoma = test system: SK-MEL-28 melanoma
KM12 colon = test system: KM12 colon
K-562 leukemia = test system: K-562 leukemia
RPMI-8226 leukemia = test system: RPMI-8226 leukemia
NCI-H23 lung = test system: NCI-H23 lung
HOP-92 NSCLC = test system: HOP-92 NSCLC

C=CCN1C(=O)/C(=C/c2ccc(Cl)cc2)N=C1SC1OC(COC(C)=O)C(OC(C)=O)C(OC(C)=O)C1OC(C)=O (stereo not given) was tested, and the TGI (MDA-N) was greater than 100 µM, the GI50 (SW-620 colon) was > 59.6 µM and 11.1 µM and the TGI (SW-620 colon) was greater than 100 µM. The TGI (OVCAR-3 ovarian) was greater than 100 µM, the GI50 (SNB-75 CNS) was 4.11 µM and 25.9 µM and the TGI (SNB-75 CNS) was 13.8 µM and 81.5 µM. For the same compound, the TGI (SK-MEL-28 melanoma) was greater than 100 µM, the TGI (KM12 colon) was greater than 100 µM and the GI50 (K-562 leukemia) was > 61.7 µM and 13.1 µM. The TGI (K-562 leukemia) was > 100 µM and 76.3 µM, the GI50 (RPMI-8226 leukemia) was 11.2 µM and 5.19 µM and the TGI (RPMI-8226 leukemia) was > 100 µM and 46.8 µM. For the same compound, the TGI (NCI-H23 lung) was > 100 µM and 76.2 µM, the GI50 (HOP-92 NSCLC) was 22 µM and 3.62 µM and the TGI (HOP-92 NSCLC) was 66.5 µM and 31.4 µM.
In the case of CC(=O)c1nccc2c1c(C)nc1ccccc12, the TGI (MDA-N) is reported as greater than 100 µM, the TGI (SW-620 colon) is reported as greater than 100 µM and the TGI (OVCAR-3 ovarian) is reported as greater than 100 µM. The TGI (SNB-75 CNS) was greater than 100 µM, the TGI (SK-MEL-28 melanoma) was greater than 100 µM and the TGI (KM12 colon) was greater than 100 µM. The TGI (K-562 leukemia) was greater than 100 µM, the TGI (RPMI-8226 leukemia) was 61 µM and the TGI (NCI-H23 lung) was greater than 100 µM. The TGI (HOP-92 NSCLC) was greater than 100 µM.
With Cc1ccc(Nc2nnc3n2S(=O)(=O)c2cc(C)c(Cl)cc2S3)cc1 the TGI (MDA-N) was 4.33 µM, the TGI (SW-620 colon) was greater than 100 µM and the TGI (OVCAR-3 ovarian) was 4.63 µM. It also gave a TGI (SNB-75 CNS) of 73.4 µM, a TGI (SK-MEL-28 melanoma) greater than 100 µM and a TGI (KM12 colon) greater than 100 µM. The TGI (K-562 leukemia) was 23.8 µM, the TGI (RPMI-8226 leukemia) was 54.9 µM and the TGI (NCI-H23 lung) was 48.3 µM. The TGI (HOP-92 NSCLC) was 83.1 µM.
In the case of COC(=O)CNC(=O)/C=C/[C@H](O[Si](C)(C)C(C)(C)C)[C@H](/C=C/C(=O)NCC(=O)OC)O[Si](C)(C)C(C)(C)C, the TGI (MDA-N) is reported as greater than 25 µM, the TGI (SW-620 colon) is reported as greater than 25 µM and the TGI (OVCAR-3 ovarian) is reported as greater than 25 µM. The TGI (SNB-75 CNS) was greater than 25 µM, the TGI (SK-MEL-28 melanoma) was greater than 25 µM and the TGI (KM12 colon) was greater than 25 µM. It also gave a TGI (K-562 leukemia) greater than 25 µM, a TGI (RPMI-8226 leukemia) greater than 25 µM and a TGI (NCI-H23 lung) greater than 25 µM. For the same compound, the TGI (HOP-92 NSCLC) was greater than 25 µM.
With CCCCC(=C=C1CCCCC1O)C1CCCN1C(=O)OC(C)(C)C (stereo not given) the TGI (MDA-N) was 30 µM, the TGI (SW-620 colon) was 35.4 µM and the TGI (OVCAR-3 ovarian) was 29.1 µM. It also gave a TGI (SNB-75 CNS) of 26.7 µM, a TGI (SK-MEL-28 melanoma) of 29.6 µM and a TGI (KM12 colon) of 31.5 µM. It also gave a TGI (K-562 leukemia) of 34.1 µM, a TGI (RPMI-8226 leukemia) of 32.6 µM and a TGI (NCI-H23 lung) of 32.4 µM. For the same compound, the TGI (HOP-92 NSCLC) was 26 µM.
For CC(C)[Si]1(C(C)C)OCC2OC(n3cnc4c(N)ncnc43)C(N)C2O[Si](C(C)C)(C(C)C)O1 (stereo not given), the TGI (MDA-N) was 24.3 µM, the TGI (SW-620 colon) was greater than 45.4 µM and the TGI (OVCAR-3 ovarian) was 20.6 µM. It also gave a TGI (SNB-75 CNS) of 25.1 µM, a TGI (SK-MEL-28 melanoma) greater than 72.1 µM and a TGI (KM12 colon) of 16.6 µM. It also gave a TGI (K-562 leukemia) of 36.9 µM, a TGI (RPMI-8226 leukemia) of 7.72 µM and a TGI (NCI-H23 lung) of 26.5 µM. The TGI (HOP-92 NSCLC) was 33 µM.
O=C(NCCCCl)c1c(O)c2ccccc2[nH]c1=O showed a TGI (MDA-N) greater than 100 µM, a TGI (SW-620 colon) greater than 100 µM and a TGI (OVCAR-3 ovarian) greater than 100 µM. The TGI (SNB-75 CNS) was greater than 77.8 µM, the TGI (SK-MEL-28 melanoma) was greater than 100 µM and the TGI (KM12 colon) was greater than 100 µM. The TGI (K-562 leukemia) was greater than 100 µM, the TGI (RPMI-8226 leukemia) was greater than 100 µM and the TGI (NCI-H23 lung) was greater than 100 µM. The TGI (HOP-92 NSCLC) was greater than 75.7 µM.
Work on CN(C)CCNc1nc2ccccc2c2c1C(=O)c1ccccc1-2 yielded a TGI (MDA-N) of 1.39 µM, a TGI (SW-620 colon) of 4.9 µM and a TGI (OVCAR-3 ovarian) of 8.4 µM. The TGI (SNB-75 CNS) was 1.68 µM, the TGI (SK-MEL-28 melanoma) was 2.84 µM and the TGI (KM12 colon) was 2.11 µM. It also gave a TGI (K-562 leukemia) of 0.396 µM, a TGI (RPMI-8226 leukemia) of 0.599 µM and a TGI (NCI-H23 lung) of 1.82 µM. It also gave a TGI (HOP-92 NSCLC) of 3.07 µM.
C/C=C\C(CC(=O)O)CC(=O)NCCC1CN(S(=O)(=O)C(F)(F)F)c2ccccc21 (stereo not given) was tested, and the TGI (MDA-N) was greater than 100 µM, the TGI (SW-620 colon) was greater than 100 µM and the TGI (OVCAR-3 ovarian) was greater than 100 µM. The TGI (SNB-75 CNS) was greater than 100 µM, the TGI (SK-MEL-28 melanoma) was greater than 100 µM and the TGI (KM12 colon) was greater than 100 µM. It also gave a TGI (K-562 leukemia) greater than 100 µM, a TGI (RPMI-8226 leukemia) greater than 100 µM and a TGI (NCI-H23 lung) greater than 100 µM. The TGI (HOP-92 NSCLC) was greater than 100 µM.
Work on COc1cc(C2S/C(=C/c3ccccc3)C(=O)N2c2ccc(Cl)cc2)cc(OC)c1OC (stereo not given) yielded a TGI (MDA-N) of 34.3 µM, a TGI (SW-620 colon) greater than 100 µM and a TGI (OVCAR-3 ovarian) greater than 100 µM. For the same compound, the TGI (SNB-75 CNS) was greater than 79.9 µM, the TGI (SK-MEL-28 melanoma) was greater than 100 µM and the TGI (KM12 colon) was greater than 100 µM. The TGI (K-562 leukemia) was greater than 100 µM, the TGI (RPMI-8226 leukemia) was greater than 100 µM and the TGI (NCI-H23 lung) was greater than 100 µM. For the same compound, the TGI (HOP-92 NSCLC) was greater than 52 µM.
C=C(CCC(C(=O)O)C1CCC2(C)C3=C(CCC12C)C1(C)CCC(O)C(C)(C)C1CC3)C(C)C (stereo not given) showed a TGI (MDA-N) greater than 100 µM, a TGI (SW-620 colon) greater than 100 µM and a TGI (OVCAR-3 ovarian) greater than 100 µM. It also gave a TGI (SNB-75 CNS) greater than 100 µM, a TGI (SK-MEL-28 melanoma) greater than 100 µM and a TGI (KM12 colon) of 22.6 µM. It also gave a TGI (K-562 leukemia) of 43.3 µM, a TGI (RPMI-8226 leukemia) of 79.7 µM and a TGI (NCI-H23 lung) greater than 100 µM. It also gave a TGI (HOP-92 NSCLC) greater than 100 µM.
With COc1ccc(C=O)cc1Oc1ccc(C[C@H]2c3c(cc(OC)c4c3Oc3cc5c(cc3O4)CCN(C)C5=O)CCN2C)cc1 the TGI (MDA-N) was 18.2 µM, the TGI (SW-620 colon) was 30.9 µM and the TGI (OVCAR-3 ovarian) was 15.4 µM. The TGI (SNB-75 CNS) was 14 µM, the TGI (SK-MEL-28 melanoma) was 22.7 µM and the TGI (KM12 colon) was 17.1 µM. For the same compound, the TGI (K-562 leukemia) was 12.3 µM, the TGI (RPMI-8226 leukemia) was 14.3 µM and the TGI (NCI-H23 lung) was 16 µM. The TGI (HOP-92 NSCLC) was 13.7 µM.
Work on O=C(O)CNC(=O)c1cccc2c(=O)c3ccccc3[nH]c12 yielded a TGI (MDA-N) greater than 100 µM, a TGI (SW-620 colon) greater than 100 µM and a TGI (OVCAR-3 ovarian) greater than 100 µM. The TGI (SNB-75 CNS) was greater than 100 µM, the TGI (SK-MEL-28 melanoma) was greater than 100 µM and the TGI (KM12 colon) was greater than 86.4 µM. The TGI (K-562 leukemia) was greater than 100 µM, the TGI (RPMI-8226 leukemia) was greater than 100 µM and the TGI (NCI-H23 lung) was greater than 100 µM. The TGI (HOP-92 NSCLC) was greater than 100 µM.
CCCCCCCC(CC(=O)O)OC(=O)CC(CCCCCCC)OC1OC(C)C(O)C(O)C1OC1OC(C)C(O)C(O)C1O (stereo not given) gave a TGI (MDA-N) greater than 100 µM, a TGI (SW-620 colon) greater than 100 µM and a TGI (OVCAR-3 ovarian) greater than 100 µM. It also gave a TGI (SNB-75 CNS) greater than 100 µM, a TGI (SK-MEL-28 melanoma) greater than 100 µM and a TGI (KM12 colon) greater than 100 µM. The TGI (K-562 leukemia) was greater than 100 µM, the TGI (RPMI-8226 leukemia) was greater than 100 µM and the TGI (NCI-H23 lung) was greater than 100 µM. For the same compound, the TGI (HOP-92 NSCLC) was greater than 100 µM.
COc1ccc(C[C@H]2COC(=O)[C@@H]2Cc2cc(OC)c(OC)c(OC)c2)cc1OC gave a TGI (MDA-N) greater than 100 µM, a TGI (SW-620 colon) greater than 100 µM and a TGI (OVCAR-3 ovarian) greater than 100 µM. It also gave a TGI (SNB-75 CNS) greater than 100 µM, a TGI (SK-MEL-28 melanoma) greater than 100 µM and a TGI (KM12 colon) greater than 100 µM. For the same compound, the TGI (K-562 leukemia) was greater than 100 µM, the TGI (RPMI-8226 leukemia) was greater than 100 µM and the TGI (NCI-H23 lung) was greater than 100 µM. The TGI (HOP-92 NSCLC) was greater than 100 µM.
In the case of Cc1cc(S(=O)(=O)NC(=NCC(=O)NN)NN)c(S)cc1Cl, the TGI (MDA-N) is reported as greater than 10 µM, the TGI (SW-620 colon) is reported as greater than 10 µM and the TGI (OVCAR-3 ovarian) is reported as greater than 10 µM. For the same compound, the TGI (SNB-75 CNS) was greater than 10 µM, the TGI (SK-MEL-28 melanoma) was greater than 10 µM and the TGI (KM12 colon) was greater than 10 µM. The TGI (K-562 leukemia) was greater than 10 µM, the TGI (RPMI-8226 leukemia) was greater than 10 µM and the TGI (NCI-H23 lung) was greater than 10 µM. For the same compound, the TGI (HOP-92 NSCLC) was greater than 10 µM.
C/C(=N\O)c1ccc(Nc2c3ccccc3nc3occc23)cc1 showed a TGI (MDA-N) greater than 50 µM, a TGI (SW-620 colon) greater than 50 µM and a TGI (OVCAR-3 ovarian) greater than 50 µM. The TGI (SNB-75 CNS) was 3.78 µM, the TGI (SK-MEL-28 melanoma) was greater than 18.5 µM and the TGI (KM12 colon) was 27.4 µM. It also gave a TGI (K-562 leukemia) greater than 50 µM, a TGI (RPMI-8226 leukemia) of 3.26 µM and a TGI (NCI-H23 lung) greater than 10.8 µM. For the same compound, the TGI (HOP-92 NSCLC) was greater than 50 µM.
